Reference: the supplement of paper PMC10307832

Tests used:
Assay in all cases: relative viability (nuclei count vs DMSO), 5 days (fraction); higher = more cells survive
CUDC-101 + Linsitinib = compound: C#Cc1cccc(Nc2ncnc3cc(OC)c(OCCCCCCC(=O)NO)cc23)c1 [CUDC-101] + C[C@]1(O)C[C@@H](c2nc(-c3ccc4ccc(-c5ccccc5)nc4c3)c3c(N)nccn32)C1 [Linsitinib] (partner 1 µM)
Outline: (§1)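 After 5 days of treatment, lung cancer cells in 1536-well plates were fixed and stained in a single step (final 0.05% Triton X-100, 1% formaldehyde, 1 ug/ml Hoechst) and their nuclei counted on 4× images. Treatment had been applied by pin tool the day after seeding as one drug alone or as a fixed anchor-drug dose with five library-drug doses (not always all listed) in √10 steps. Relative viability is the nuclei count of treated wells divided by that of vehicle wells, and values are medians of duplicate plates.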

CUDC-101 + Pemetrexed = compound: C#Cc1cccc(Nc2ncnc3cc(OC)c(OCCCCCCC(=O)NO)cc23)c1 [CUDC-101] + Nc1nc2[nH]cc(CCc3ccc(C(=O)N[C@@H](CCC(=O)O)C(=O)O)cc3)c2c(=O)[nH]1 [Pemetrexed] (partner 0.2 µM)
Outline: as §1

[1] = compound: C1=CC=C2C(=C1)N=C(S2)C(C#N)C3=NC(=NC=C3)NCCC4=CN=CC=C4 + C[C@@H](Oc1cc(-c2cnn(C3CCNCC3)c2)cnc1N)c1c(Cl)ccc(F)c1Cl [Crizotinib] (partner 1 µM)
Outline: as §1

[2] = compound: C1=CC=C2C(=C1)N=C(S2)C(C#N)C3=NC(=NC=C3)NCCC4=CN=CC=C4 + Cc1cc(Nc2cc(N3CCN(C)CC3)nc(Sc3ccc(NC(=O)C4CC4)cc3)n2)n[nH]1 [Tozasertib] (partner 0.1 µM)
Outline: as §1

Cell Line	relative viability (CUDC-101 + Linsitinib; first compound 0.01 µM)	relative viability (CUDC-101 + Linsitinib; first compound 0.03162 µM)	relative viability (CUDC-101 + Linsitinib; first compound 0.1 µM)	relative viability (CUDC-101 + Linsitinib; first compound 0.3162 µM)	relative viability (CUDC-101 + Linsitinib; first compound 1 µM)	relative viability (CUDC-101 + Pemetrexed; first compound 0.01 µM)	relative viability (CUDC-101 + Pemetrexed; first compound 0.03162 µM)	relative viability (CUDC-101 + Pemetrexed; first compound 0.1 µM)	relative viability (CUDC-101 + Pemetrexed; first compound 0.3162 µM)	relative viability (CUDC-101 + Pemetrexed; first compound 1 µM)	relative viability ([1]; first compound 0.005 µM)	relative viability ([1]; first compound 0.01581 µM)	relative viability ([1]; first compound 0.05 µM)	relative viability ([1]; first compound 0.1581 µM)	relative viability ([1]; first compound 0.5 µM)	relative viability ([2]; first compound 0.005 µM)	relative viability ([2]; first compound 0.05 µM)	relative viability ([2]; first compound 0.1581 µM)	relative viability ([2]; first compound 0.5 µM)	relative viability ([2]; first compound 0.01581 µM)
HCC-44	0.549	0.617	0.678	0.675	0.555	0.629	0.657	0.71	0.645	0.693	0.753	0.837	0.826	0.875	0.69	0.949	0.883	0.927	0.548	–
EKVX	1.17	0.84	0.938	1.07	0.709	0.395	0.435	0.442	0.373	0.35	0.775	1.03	0.986	0.895	0.573	0.481	0.429	0.498	0.336	0.468
NCI-H23	0.667	0.51	0.606	0.661	0.435	0.757	0.744	0.604	0.755	0.514	–	0.602	0.433	0.544	0.35	0.634	0.35	0.301	0.343	0.304
NCI-H2347	1.09	0.91	0.963	1.05	0.98	0.458	0.418	0.434	0.479	0.405	0.724	0.669	0.533	0.699	0.723	0.758	0.574	0.599	0.412	0.533
SK-LU-1	1.17	0.942	1.08	0.868	0.773	0.948	1.12	0.948	0.965	0.947	–	0.853	0.95	1.16	0.907	0.293	0.33	0.309	0.299	0.344
A549	0.634	0.444	0.537	0.731	0.487	–	–	–	–	–	0.539	0.795	0.837	0.705	0.554	–	–	–	–	–
LU99A	0.565	0.484	0.482	0.54	0.242	0.205	0.197	0.179	0.18	0.176	0.457	0.686	0.599	0.599	0.51	0.258	0.224	0.278	0.214	0.247
NCI-H596	1.08	0.923	1.03	1.13	0.882	0.466	0.538	0.482	0.644	0.472	0.864	1.03	0.939	1.16	0.952	0.774	0.81	0.917	0.853	1
A-427	1.09	1.05	1.05	1.11	1.05	0.954	0.971	0.982	0.821	0.763	0.69	0.979	0.984	0.951	0.899	0.203	0.222	0.227	0.203	0.181
SW 900	–	–	–	–	–	0.502	0.429	0.452	0.454	0.448	–	–	–	–	–	0.452	0.5	0.489	0.362	0.489
COR-L 105	1.08	0.934	0.921	0.874	0.396	1.04	0.967	1.1	1.12	0.931	0.679	0.815	0.699	0.628	0.728	0.324	0.315	0.339	0.351	0.338
LOU-NH91	0.978	0.634	0.564	0.599	0.453	0.411	0.414	0.421	0.315	0.341	0.709	0.786	0.689	0.695	0.685	0.652	0.599	0.689	0.59	0.606
COR-L23	1.25	0.898	0.956	0.736	0.252	0.184	0.196	0.2	0.186	0.175	0.6	0.596	0.728	0.653	0.568	0.179	0.175	0.167	0.149	0.169
HCC-15	0.786	0.853	0.857	0.954	0.743	0.212	0.244	0.226	0.217	0.198	0.734	0.851	0.833	1.02	0.776	0.343	0.316	0.315	0.273	0.411
LCLC-103H	1.12	1.11	1.11	1.11	1.15	0.472	0.537	0.486	0.456	0.429	1.12	1.03	1	1.13	0.964	0.49	0.525	0.558	0.478	0.492
HARA	1.01	0.804	0.908	0.512	0.349	0.253	0.237	–	0.243	0.176	0.928	1.11	0.957	1.22	0.978	0.098	0.114	0.0978	0.118	0.0872
BEN	1.04	0.719	1.12	0.824	0.628	0.812	0.727	0.78	0.703	0.769	0.668	0.924	0.82	0.785	0.806	0.261	0.457	0.638	0.435	0.49
LC-2-ad	0.86	0.846	0.882	0.802	0.472	0.247	0.271	0.284	0.26	0.284	0.413	–	0.425	0.502	0.414	0.358	0.405	0.449	0.437	0.433
NCI-H1299	0.905	0.99	0.936	0.994	0.973	–	–	–	–	–	0.943	0.964	0.989	0.95	0.871	–	–	–	–	–
NCI-H2009	1.21	1.14	1.19	1.2	1.17	1.05	1.02	1.02	0.994	0.997	1	0.991	0.97	1.08	0.976	0.683	0.65	0.763	0.629	0.747

Cell Line	relative viability (CUDC-101 + Linsitinib; first compound 0.01 µM)	relative viability (CUDC-101 + Linsitinib; first compound 0.03162 µM)	relative viability (CUDC-101 + Linsitinib; first compound 0.1 µM)	relative viability (CUDC-101 + Linsitinib; first compound 0.3162 µM)	relative viability (CUDC-101 + Linsitinib; first compound 1 µM)	relative viability (CUDC-101 + Pemetrexed; first compound 0.01 µM)	relative viability (CUDC-101 + Pemetrexed; first compound 0.03162 µM)	relative viability (CUDC-101 + Pemetrexed; first compound 0.1 µM)	relative viability (CUDC-101 + Pemetrexed; first compound 0.3162 µM)	relative viability (CUDC-101 + Pemetrexed; first compound 1 µM)	relative viability ([1]; first compound 0.005 µM)	relative viability ([1]; first compound 0.01581 µM)	relative viability ([1]; first compound 0.05 µM)	relative viability ([1]; first compound 0.1581 µM)	relative viability ([1]; first compound 0.5 µM)	relative viability ([2]; first compound 0.005 µM)	relative viability ([2]; first compound 0.05 µM)	relative viability ([2]; first compound 0.1581 µM)	relative viability ([2]; first compound 0.5 µM)	relative viability ([2]; first compound 0.01581 µM)
NCI-H1395	1.13	1.05	0.963	1.07	0.888	0.856	0.91	0.943	0.877	0.676	–	–	–	–	–	0.684	0.755	0.713	0.756	0.69
NCI-H1650	–	–	–	–	–	0.381	0.297	0.389	0.397	0.351	0.609	0.852	0.865	1.01	0.57	0.289	0.391	0.377	0.315	0.405
NCI-H2085	0.808	0.985	0.914	0.929	0.792	0.779	0.665	0.89	0.959	0.63	0.682	0.887	0.792	0.825	0.792	0.826	0.744	0.813	0.566	0.821
NCI-H1666	0.747	0.741	0.759	0.84	0.519	0.985	0.843	0.774	0.854	0.833	1.07	0.975	1.01	1	0.907	0.642	0.541	0.651	0.617	0.615
NCI-H1993	0.755	0.756	0.738	0.772	0.705	0.586	0.616	0.637	0.606	0.517	0.684	0.844	0.762	0.94	0.832	0.625	0.521	0.608	0.577	0.657
ABC-1	0.816	0.778	0.601	0.567	0.303	–	–	–	–	–	1.05	1.1	0.941	1.21	0.925	0.202	0.169	0.152	0.184	0.196
NCI-H727	0.204	0.207	0.308	0.396	0.242	–	–	–	–	–	0.793	0.803	0.739	0.836	0.529	0.629	0.51	0.512	0.686	0.674
NCI-H1792	0.558	0.407	0.54	0.547	0.454	0.856	0.787	0.915	0.721	0.581	–	1.08	0.997	1.33	0.616	–	–	–	–	–
IA-LM	0.676	0.665	0.365	0.544	0.548	–	–	–	–	–	–	0.985	0.922	0.808	0.808	–	–	–	–	–
NCI-H2342	–	–	–	–	–	0.842	0.757	0.76	0.819	0.742	–	–	–	–	–	0.403	0.499	0.47	0.456	0.522
NCI-H2170	–	–	–	–	–	0.281	0.257	0.24	0.234	0.254	–	1.33	1.1	1.31	1.05	0.513	0.661	0.81	0.636	0.759
NCI-H522	–	–	–	–	–	0.87	0.802	1.05	0.963	0.765	–	–	–	–	–	0.458	0.501	0.573	0.537	0.553
Calu-6	0.989	0.897	1.04	1.01	0.869	–	–	–	–	–	0.479	0.771	0.831	0.907	0.638	–	–	–	–	–
NCI-H1703	–	0.559	0.636	1.15	0.745	–	–	–	–	–	0.666	0.684	0.536	0.542	0.458	–	–	–	–	–
NCI-H1793	0.898	0.73	0.803	0.779	0.633	0.75	0.777	0.663	0.889	0.494	–	–	–	–	–	0.262	0.264	0.32	0.317	0.334
NCI-H1623	–	–	–	–	–	–	–	–	–	–	–	–	–	–	–	0.55	0.395	0.462	0.351	0.398
ChaGo-K-1	–	–	–	–	–	0.259	0.246	0.259	0.256	0.256	0.761	–	1.2	1.29	1.02	–	0.223	0.251	0.255	0.209
NCI-H1563	1.22	1.06	1.4	1.18	1.11	0.78	0.758	0.844	0.773	0.512	0.86	0.843	0.838	0.814	0.815	–	–	–	–	–
EBC-1	0.954	0.904	0.766	0.762	0.623	–	–	–	–	–	0.236	0.172	0.189	0.224	0.22	–	–	–	–	–
NCI-H1648	–	–	–	–	–	0.826	0.744	0.805	0.741	0.535	–	–	–	–	–	0.394	0.553	0.424	0.484	0.416
